Laboratory results as given in US9549912B2, “Methods for treating atrial fibrillation” (Armetheon, Inc., priority 2009, dated 2017).
Where two headings read alike, the source gives them in different places.

How the values were obtained:
[1] = Electrophysiological activity in animals: atrial refractoriness, metabolite activity; format: in vivo; settings: in vivo
[2] = target: P-glycoprotein (P-gp) (Homo sapiens, UniProt P08183); settings: cited from earlier work
[3] = cited from earlier work
[4] = 2 years; 8 for the placebo; cited from earlier work
[5] = tested on: AF patients; settings: followed for a year, versus placebo; cited from earlier work
[6] = Phase 2 clinical trial of tecarfarin: time in therapeutic INR range versus warfarin; format: in vivo, human; settings: for proportion of time with INR below 1.5 / proportion of time with INR between 1.5 and 1.9: human, in vivo; for time in therapeutic range (TTR), INR between 2.0 and 3.0: same patient population, previously on warfarin
[7] = tested on: patients with AF; settings: cited from earlier work

P-glycoprotein (P-gp), sequence (P08183 whole entry): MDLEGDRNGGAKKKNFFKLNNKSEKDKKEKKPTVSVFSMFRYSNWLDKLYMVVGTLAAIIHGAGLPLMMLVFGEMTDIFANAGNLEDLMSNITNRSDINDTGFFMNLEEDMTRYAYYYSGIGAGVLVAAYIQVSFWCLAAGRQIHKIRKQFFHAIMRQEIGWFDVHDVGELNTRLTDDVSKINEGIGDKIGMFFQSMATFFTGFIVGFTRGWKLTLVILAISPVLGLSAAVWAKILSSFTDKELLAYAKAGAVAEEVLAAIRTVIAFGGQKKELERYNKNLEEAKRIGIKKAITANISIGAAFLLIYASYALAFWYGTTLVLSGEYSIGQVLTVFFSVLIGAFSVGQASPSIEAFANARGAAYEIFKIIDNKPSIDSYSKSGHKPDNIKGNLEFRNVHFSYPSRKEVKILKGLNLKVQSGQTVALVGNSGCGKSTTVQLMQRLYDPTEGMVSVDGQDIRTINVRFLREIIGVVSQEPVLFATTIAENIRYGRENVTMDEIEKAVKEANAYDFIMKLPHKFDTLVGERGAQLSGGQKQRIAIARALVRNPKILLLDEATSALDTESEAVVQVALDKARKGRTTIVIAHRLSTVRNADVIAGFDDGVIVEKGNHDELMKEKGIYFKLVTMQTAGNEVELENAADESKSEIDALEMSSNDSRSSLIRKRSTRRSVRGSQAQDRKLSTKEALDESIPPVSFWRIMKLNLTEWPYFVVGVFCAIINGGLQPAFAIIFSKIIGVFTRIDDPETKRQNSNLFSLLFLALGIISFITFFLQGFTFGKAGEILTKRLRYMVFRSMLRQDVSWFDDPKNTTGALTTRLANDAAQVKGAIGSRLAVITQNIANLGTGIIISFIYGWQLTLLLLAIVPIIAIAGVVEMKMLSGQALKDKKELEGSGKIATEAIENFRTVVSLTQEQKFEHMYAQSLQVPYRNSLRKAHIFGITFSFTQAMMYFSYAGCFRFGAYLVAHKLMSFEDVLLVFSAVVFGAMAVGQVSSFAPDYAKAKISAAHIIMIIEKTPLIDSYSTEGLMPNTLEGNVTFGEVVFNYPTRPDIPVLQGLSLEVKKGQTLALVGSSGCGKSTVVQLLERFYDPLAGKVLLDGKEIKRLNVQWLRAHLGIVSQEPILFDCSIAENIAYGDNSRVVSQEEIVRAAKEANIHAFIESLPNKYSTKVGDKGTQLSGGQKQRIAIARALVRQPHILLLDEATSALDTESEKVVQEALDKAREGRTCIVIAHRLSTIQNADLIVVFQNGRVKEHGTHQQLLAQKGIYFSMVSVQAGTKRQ

In the case of `CCN(CC)CCOc1c(I)cc(C(=O)c2c(CC(=O)O)oc3ccccc23)cc1I` [ATI-2000], the electrophysiological activity [1] is reported as “electrophysiologically inactive”.

For `[H]/N=C(/N)c1ccc(NCc2nc3cc(C(=O)N(CCC(=O)O)c4ccccn4)ccc3n2C)cc1` [dabigatran], the P-gp substrate status [2] is given as “substrate”, the “major bleeding versus warfarin” value ([3]; 110 mg) is given as “superior” and the “major bleeding versus warfarin” value ([3]; 150 mg) is given as “noninferior”.

For `CCCCc1oc2ccc(NS(C)(=O)=O)cc2c1C(=O)c1ccc(OCCCN(CCCC)CCCC)cc1` [dronedarone], the “number of strokes in patients with only AF or atrial flutter on all ECGs” value [4] is listed as 2 and the “time to first recurrence of AF (TTFR)” value [5] is listed as “significant increase in TTFR compared to placebo”.

In the case of `C=C[C@H]1C[N@@]2CC[C@H]1C[C@@H]2[C@@H](O)c1ccnc2ccc(OC)cc12` [quinidine], the P-gp inhibition [2] is listed as “particularly potent P-gp inhibitor”.

For `CC(OC(=O)c1ccc(Cc2c(O)c3ccccc3oc2=O)cc1)(C(F)(F)F)C(F)(F)F` [tecarfarin], the “proportion of time with INR below 1.5” value [6] was 1.2%, the “proportion of time with INR between 1.5 and 1.9” value [6] was 14.2% and the “time in therapeutic range (TTR), INR between 2.0 and 3.0” value [6] was 71.5%.

In the case of `CC(=O)CC(c1ccccc1)c1c(O)c2ccccc2oc1=O` (centres unmarked) [warfarin], the strokes prevented [7] is listed as 64%, the “proportion of time with INR below 1.5” value [6] is listed as 3.9% and the “proportion of time with INR between 1.5 and 1.9” value [6] is listed as 22.4%. The “time in therapeutic range (TTR), INR between 2.0 and 3.0” value [6] was 59.3%.
